{"source": "BindingDB's records for doi:10.1021/cb800120t", "about": "(deCODE Chemistry Inc, 2008)"}
{"target": "T1, m7GpppX diphosphatase (Homo sapiens, UniProt Q96C86)", "T1 sequence (Q96C86 whole entry)": "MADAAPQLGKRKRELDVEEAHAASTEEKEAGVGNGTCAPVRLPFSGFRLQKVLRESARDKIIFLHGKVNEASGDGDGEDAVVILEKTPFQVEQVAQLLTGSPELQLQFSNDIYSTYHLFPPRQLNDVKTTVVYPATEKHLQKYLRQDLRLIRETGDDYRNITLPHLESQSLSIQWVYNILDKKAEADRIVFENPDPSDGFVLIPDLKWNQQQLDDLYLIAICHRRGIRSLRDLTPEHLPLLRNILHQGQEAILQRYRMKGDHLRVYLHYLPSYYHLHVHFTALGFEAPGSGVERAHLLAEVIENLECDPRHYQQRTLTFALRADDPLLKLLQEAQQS", "test": "Biochemical Assay", "text": "In vitro biochemical assay using scavenger decapping enzyme (DcpS) as a target and cell based assay using SMN2 b-lactamase NSC-34 cell reporter gene.", "units": {"EC50": "µM", "IC50": "µM"}}
{"smiles": "Nc1nc(N)c2c(COc3ccccc3I)cccc2n1", "note": "[D153215]", "EC50": 0.243}
{"smiles": "CC(=O)Nc1nc(CN2CCC(COc3cccc4nc(N)nc(N)c34)CC2)cs1", "note": "[D156676]", "EC50": 2.54, "IC50": 0.339}
{"smiles": "Nc1nc(N)c2c(OCC3CCN(CC4CCNCC4)CC3)cccc2n1", "note": "[D157554]", "EC50": 0.921}
{"smiles": "Cn1ccnc1CN1CCC(COc2cccc3nc(N)nc(N)c23)CC1", "note": "[D157555]", "EC50": 0.108, "IC50": 0.00938}
{"smiles": "Nc1nc(N)c2c(OCC3CCN(c4ccccc4Cl)CC3)cccc2n1", "note": "[D158885]", "EC50": 0.795, "IC50": 0.101}
{"smiles": "Nc1nc(N)c2c(OCC3CCN(CC(F)(F)F)CC3)cccc2n1", "note": "[D158963]", "EC50": 0.223, "IC50": 0.0234}
